From patent US20230210831A1, “CHRONIC KIDNEY DISEASE TREATMENT OR PREVENTION METHOD” (Japan Tobacco Inc., priority 2019, published 2023)

Tests used:
Assay type in all cases: cell-based
[1] = test system: Salmonella typhimurium TA1537; assay: Ames test (reverse mutation test), TA1537
Description: (§1) The solvent used herein was dimethyl sulfoxide (DMSO, 100 µL/plate).
(§2) The mixtures were preincubated at 37° C. for 20 minutes while shaking. […] Two plates per treatment were used.

[2] = test system: Salmonella typhimurium TA98; assay: Ames test (reverse mutation test), TA98
Description: as §1, §2

[3] = test system: Salmonella typhimurium TA100; assay: Ames test (reverse mutation test), TA100
Description: as §1, §2

[4] = test system: Salmonella typhimurium TA1535; assay: Ames test (reverse mutation test), TA1535
Description: as §1, §2

Escherichia coli WP2uvrA = assay: Ames test (reverse mutation test), WP2uvrA; details: WP2uvrA
Description: as §1, §2

CC(C)(C)Oc1cccc(-c2cc(N)nn2-c2ccccc2)c1 [Metabolite C]
Number of revertant colonies ([1]; TA1537, +S9 mix, 2.3 µg/plate): 6 | Number of revertant colonies ([1]; TA1537, +S9 mix, 6.9 µg/plate): 7 | Number of revertant colonies ([1]; TA1537, +S9 mix, 21 µg/plate): 7 | Number of revertant colonies ([1]; TA1537, +S9 mix, 62 µg/plate): 9 | Number of revertant colonies ([1]; TA1537, +S9 mix, 185 µg/plate): 9 | Number of revertant colonies ([1]; TA1537, +S9 mix, 556 µg/plate): 4 | Number of revertant colonies ([1]; TA1537, +S9 mix, 1667 µg/plate): 4 | Number of revertant colonies ([1]; TA1537, +S9 mix, 5000 µg/plate): 5 | Number of revertant colonies ([1]; TA1537, -S9 mix, 2.3 µg/plate): 3 | Number of revertant colonies ([1]; TA1537, -S9 mix, 6.9 µg/plate): 1 | Number of revertant colonies ([1]; TA1537, -S9 mix, 21 µg/plate): 3 | Number of revertant colonies ([1]; TA1537, -S9 mix, 62 µg/plate): 3 | Number of revertant colonies ([1]; TA1537, -S9 mix, 185 µg/plate): 2 | Number of revertant colonies ([1]; TA1537, -S9 mix, 556 µg/plate): 0 | Number of revertant colonies ([1]; TA1537, -S9 mix, 1667 µg/plate): 0 | Number of revertant colonies ([1]; TA1537, -S9 mix, 5000 µg/plate): 0 | Number of revertant colonies ([2]; TA98, +S9 mix, 2.34 µg/plate): 38 | Number of revertant colonies ([2]; TA98, +S9 mix, 4.69 µg/plate): 36 | Number of revertant colonies ([2]; TA98, +S9 mix, 9.38 µg/plate): 73 | Number of revertant colonies ([2]; TA98, +S9 mix, 18.8 µg/plate): 107 | Number of revertant colonies ([2]; TA98, +S9 mix, 37.5 µg/plate): 133 | Number of revertant colonies ([2]; TA98, +S9 mix, 75 µg/plate): 153 | Number of revertant colonies ([2]; TA98, +S9 mix, 150 µg/plate): 133 | Number of revertant colonies ([2]; TA98, +S9 mix, 300 µg/plate): 138 | Number of revertant colonies ([2]; TA98, -S9 mix, 2.3 µg/plate): 14 | Number of revertant colonies ([2]; TA98, -S9 mix, 6.9 µg/plate): 15 | Number of revertant colonies ([2]; TA98, -S9 mix, 21 µg/plate): 17 | Number of revertant colonies ([2]; TA98, -S9 mix, 62 µg/plate): 8 | Number of revertant colonies ([2]; TA98, -S9 mix, 185 µg/plate): 8 | Number of revertant colonies ([2]; TA98, -S9 mix, 556 µg/plate): 8 | Number of revertant colonies ([2]; TA98, -S9 mix, 1667 µg/plate): 8 | Number of revertant colonies ([2]; TA98, -S9 mix, 5000 µg/plate): 0 | potential to induce reverse mutations ([2]; TA98 with S9 mix): showed potential to induce reverse mutations | Number of revertant colonies ([3]; TA100, +S9 mix, 2.34 µg/plate): 526 | Number of revertant colonies ([3]; TA100, +S9 mix, 4.69 µg/plate): 778 | Number of revertant colonies ([3]; TA100, +S9 mix, 9.38 µg/plate): 1210 | Number of revertant colonies ([3]; TA100, +S9 mix, 18.8 µg/plate): 1745 | Number of revertant colonies ([3]; TA100, +S9 mix, 37.5 µg/plate): 2049 | Number of revertant colonies ([3]; TA100, +S9 mix, 75 µg/plate): 2147 | Number of revertant colonies ([3]; TA100, +S9 mix, 150 µg/plate): 2043 | Number of revertant colonies ([3]; TA100, +S9 mix, 300 µg/plate): 1412 | Number of revertant colonies ([3]; TA100, -S9 mix, 2.3 µg/plate): 87 | Number of revertant colonies ([3]; TA100, -S9 mix, 6.9 µg/plate): 99 | Number of revertant colonies ([3]; TA100, -S9 mix, 21 µg/plate): 48 | Number of revertant colonies ([3]; TA100, -S9 mix, 62 µg/plate): 41 | Number of revertant colonies ([3]; TA100, -S9 mix, 185 µg/plate): 45 | Number of revertant colonies ([3]; TA100, -S9 mix, 556 µg/plate): 33 | Number of revertant colonies ([3]; TA100, -S9 mix, 1667 µg/plate): 25 | Number of revertant colonies ([3]; TA100, -S9 mix, 5000 µg/plate): 35 | potential to induce reverse mutations ([3]; TA100 with S9 mix): showed potential to induce reverse mutations | Number of revertant colonies ([4]; TA1535, +S9 mix, 2.3 µg/plate): 8 | Number of revertant colonies ([4]; TA1535, +S9 mix, 6.9 µg/plate): 8 | Number of revertant colonies ([4]; TA1535, +S9 mix, 21 µg/plate): 5 | Number of revertant colonies ([4]; TA1535, +S9 mix, 62 µg/plate): 4 | Number of revertant colonies ([4]; TA1535, +S9 mix, 185 µg/plate): 5 | Number of revertant colonies ([4]; TA1535, +S9 mix, 556 µg/plate): 4 | Number of revertant colonies ([4]; TA1535, +S9 mix, 1667 µg/plate): 5 | Number of revertant colonies ([4]; TA1535, +S9 mix, 5000 µg/plate): 4 | Number of revertant colonies ([4]; TA1535, -S9 mix, 21 µg/plate): 6 | Number of revertant colonies ([4]; TA1535, -S9 mix, 556 µg/plate): 0 | Number of revertant colonies (Escherichia coli WP2uvrA; +S9 mix, 2.3 µg/plate): 28 | Number of revertant colonies (Escherichia coli WP2uvrA; +S9 mix, 6.9 µg/plate): 23 | Number of revertant colonies (Escherichia coli WP2uvrA; +S9 mix, 21 µg/plate): 21 | Number of revertant colonies (Escherichia coli WP2uvrA; +S9 mix, 62 µg/plate): 26 | Number of revertant colonies (Escherichia coli WP2uvrA; +S9 mix, 185 µg/plate): 17 | Number of revertant colonies (Escherichia coli WP2uvrA; +S9 mix, 556 µg/plate): 8 | Number of revertant colonies (Escherichia coli WP2uvrA; +S9 mix, 1667 µg/plate): 12 | Number of revertant colonies (Escherichia coli WP2uvrA; +S9 mix, 5000 µg/plate): 16 | Number of revertant colonies (Escherichia coli WP2uvrA; -S9 mix, 2.3 µg/plate): 15 | Number of revertant colonies (Escherichia coli WP2uvrA; -S9 mix, 6.9 µg/plate): 16 | Number of revertant colonies (Escherichia coli WP2uvrA; -S9 mix, 21 µg/plate): 17 | Number of revertant colonies (Escherichia coli WP2uvrA; -S9 mix, 62 µg/plate): 13 | Number of revertant colonies (Escherichia coli WP2uvrA; -S9 mix, 185 µg/plate): 13 | Number of revertant colonies (Escherichia coli WP2uvrA; -S9 mix, 556 µg/plate): 13 | Number of revertant colonies (Escherichia coli WP2uvrA; -S9 mix, 1667 µg/plate): 10 | Number of revertant colonies (Escherichia coli WP2uvrA; -S9 mix, 5000 µg/plate): 11
